The target of assay [1] is T1, SND1 (Homo sapiens, UniProt Q7KZF4).
T1 construct: SND1 (aa 650–910); His (N, cleaved yes); made in house; host or cells: E. coli BL21 (DE3) Codon plus RIL
T1 sequence (Q7KZF4 650-910): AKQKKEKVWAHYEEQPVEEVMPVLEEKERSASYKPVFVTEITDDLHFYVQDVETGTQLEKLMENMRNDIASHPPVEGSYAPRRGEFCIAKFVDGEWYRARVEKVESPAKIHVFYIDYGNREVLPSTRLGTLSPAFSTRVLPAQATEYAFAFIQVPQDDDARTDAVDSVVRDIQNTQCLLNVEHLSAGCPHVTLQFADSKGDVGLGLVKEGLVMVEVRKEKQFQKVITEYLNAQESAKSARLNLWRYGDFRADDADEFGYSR
In words: ITC binding to SND1. The source says:
The coding DNA fragments of following Tudor domains were cloned into pET28-MHL vector: SMN (aa 82–147), UHRF1 (aa 126–285), SMNDC1 (aa 53–130), TDRD3 (aa 554–611), SND1 (aa 650–910), TDRD2 (aa 327–420), FXR1 (aa 2–132), PHF1 (aa 28–87), SGF29 (aa 115–293), JMJD2A (aa 897–1101), 53BP1 (aa 1483–1606), SETDB1 (aa 190–410), LBR (aa 1–67), ZGPAT (aa 120–271). The coding regions of chromodomain of CBX7 (aa 8–62), PWWP domain of DNMT3A (aa 275–417), WD40 repeats of WDR5 (aa 24–334) and CW domain of ZCWPW2 (aa 21–78) were also subcloned into pET28-MHL vector to generate N-terminally His-tagged fusion protein. The MBT repeats of L3MBTL1 (aa 200–522) and L3MBTL2 (aa 170–625) were subcloned into pET28GST-LIC vector to generate N-terminally GST-His-tagged fusion protein. All the plasmids were generated by ligase independent cloning (Vazyme Biotech, C112 or ABclonal Technology, RK21020). […] The proteins were further purified by Superdex75 or Superdex200 gel-filtration column (GE Healthcare) in a buffer containing 20 mM Tris-HCl, pH 7.5, 150 mM NaCl and 1 mM DTT. For crystallization experiments, purified proteins were concentrated to 18 mg/mL for SMN, 23 mg/mL for UHRF1 and 10 mg/mL for TDRD3 in the gel-filtration buffer. […] The molecular weight of all protein samples was measured by mass spectrometry.
For the ITC measurement, the concentrated proteins were diluted into 20 mM Tris-HCl, pH 7.5, 150 mM NaCl (ITC buffer); the lyophilized compounds were dissolved in the same buffer, and the pH value was adjusted by adding 2 M NaOH or 2 M HCl. […] Compound concentrations were calculated from the mass and the volume of the solvent. […] The protein with a concentration of 50–100 μM was placed in the cell chamber, and the compounds with a concentration of 0.5–2 mM in syringe was injected in 25, 20, or 20 successive injections with a spacing of 180, 150, or 120 s for VP-ITC, iTC-200, or Nano-ITC, respectively, as previously described[30]–[32]. iTC-200 or Nano-ITC data were consistent with those from the VP-ITC instrument, based on ITC results of SMN-compound 1 detected by using all the instruments. […]

Assay [2] has as its system UHRF1_TTD R296-binding pocket mutants. The experiment in a line: ITC binding to UHRF1 TTD R296-binding pocket mutants. The settings on record: Supplementary Fig. 9e. From the text: (§1) The coding DNA fragments of following Tudor domains were cloned into pET28-MHL vector: SMN (aa 82–147), UHRF1 (aa 126–285), SMNDC1 (aa 53–130), TDRD3 (aa 554–611), SND1 (aa 650–910), TDRD2 (aa 327–420), FXR1 (aa 2–132), PHF1 (aa 28–87), SGF29 (aa 115–293), JMJD2A (aa 897–1101), 53BP1 (aa 1483–1606), SETDB1 (aa 190–410), LBR (aa 1–67), ZGPAT (aa 120–271). The coding regions of chromodomain of CBX7 (aa 8–62), PWWP domain of DNMT3A (aa 275–417), WD40 repeats of WDR5 (aa 24–334) and CW domain of ZCWPW2 (aa 21–78) were also subcloned into pET28-MHL vector to generate N-terminally His-tagged fusion protein. The MBT repeats of L3MBTL1 (aa 200–522) and L3MBTL2 (aa 170–625) were subcloned into pET28GST-LIC vector to generate N-terminally GST-His-tagged fusion protein. All the plasmids were generated by ligase independent cloning (Vazyme Biotech, C112 or ABclonal Technology, RK21020). […] The molecular weight of all protein samples was measured by mass spectrometry.
(§2) For the ITC measurement, the concentrated proteins were diluted into 20 mM Tris-HCl, pH 7.5, 150 mM NaCl (ITC buffer); the lyophilized compounds were dissolved in the same buffer, and the pH value was adjusted by adding 2 M NaOH or 2 M HCl. […] Compound concentrations were calculated from the mass and the volume of the solvent. […]

Assay [3] has as its target T2, ZCWPW2 (CW) (Homo sapiens, UniProt Q504Y3).
T2 construct: ZCWPW2 (aa 21–78); His (N, cleaved yes); made in house; host or cells: E. coli BL21 (DE3) Codon plus RIL
In words: ITC binding to CW domain of ZCWPW2. The settings on record: Fig. 1c.
Source text: as §1, §2

The target in assay [4] is T3, PHF1 (Homo sapiens, UniProt O43189).
T3 construct: PHF1 (aa 28–87); His (N, cleaved yes); made in house; host or cells: E. coli BL21 (DE3) Codon plus RIL
T3 sequence (O43189 28-87): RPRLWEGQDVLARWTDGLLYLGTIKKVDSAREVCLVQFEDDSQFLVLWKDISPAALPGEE
The experiment in a line: ITC binding to PHF1. Particulars: Fig. 1c.
Source text: as §1, §2

In assay [5] the target is T4, LBR (Homo sapiens, UniProt Q14739).
T4 construct: LBR (aa 1–67); His (N, cleaved yes); made in house; host or cells: E. coli BL21 (DE3) Codon plus RIL
T4 sequence (Q14739 1-67): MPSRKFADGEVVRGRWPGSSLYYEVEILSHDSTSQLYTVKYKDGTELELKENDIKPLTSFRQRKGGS
The experiment in a line: ITC binding to LBR. The settings on record: Fig. 1c.
Source text: as §1, §2

The values that follow come from publication PMC9481570, “A small molecule antagonist of SMN disrupts the interaction between SMN and RNAP II” (Nature Communications, 2022).

Like-named read-outs stand apart in the source and are kept apart here.

A word on the Kd: it is the free concentration of one partner at which half of the binding sites on the other are occupied at equilibrium, for simple one-to-one binding.

T2 sequence (Q504Y3 21-78): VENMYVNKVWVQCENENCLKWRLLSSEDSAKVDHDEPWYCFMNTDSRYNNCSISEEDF

With `Cn1c2c(c(=N)c3c1CCC3)CCC2` [Compound 1, 4-methyl-2,3,4,5,6,7-hexahydrodicyclopenta[b,e]pyridin-8(1H)-imine], the Kd in assay [1] (ITC, Fig. 1c, read-out: Kd (SND1)) is > 100 µM; in assay [1] (Supplementary Fig. 11c, VP-ITC, read-out: Kd, ITC binding curve, SND1), 244 ± 51 µM; in assay [3], > 244 µM; in assay [4], > 244 µM; in assay [5], > 244 µM. Besides, the “ITC binding curve, SND1 (in words)” value in assay [1] (Supplementary Fig. 2d) is on record as “Weak binding”. Further, the “binding to UHRF1_TTD R296-binding pocket mutants” value in assay [2] is recorded as “totally disrupted”.
